pEC50, pIC50: −log10 of the molar value. Calls of active or inactive are those of the source. No cut-off for these calls is given here.
Assays:
Format in all cases: cell-based
[1] = Inhibition of thapsigargin activated calcium-release activated channel in rat RBL2H3 mast cells assessed as decrease in calcium influx by Fluo-4NW calcium assay; conditions: for pIC50: Rattus norvegicus, RBL-2H3, read-out: IC50
RBL-2H3 = assay: Cytotoxicity against rat RBL2H3 mast cells at 100 uM by CCK8 cell viability assay; conditions: rbl-2h3, 100 µM
Rattus norvegicus [2] = species: Rattus norvegicus; assay: (§1) Inhibition of thapsigargin activated calcium-release activated channel in rat RBL2H3 mast cells assessed as decrease in TNFalpha secretion measured 4 hrs after extracellular calcium exposure by ELISA
[3] = as §1; conditions: RBL-2H3, 4 h
Rattus norvegicus [4] = species: Rattus norvegicus; assay: Inhibition of thapsigargin activated calcium-release activated channel in rat RBL2H3 mast cells assessed as decrease in calcium influx at 30 uM by Fluo-4NW calcium assay
Rattus norvegicus [5] = species: Rattus norvegicus; assay: Inhibition of thapsigargin activated calcium-release activated channel in rat RBL2H3 mast cells assessed as decrease in calcium influx at 100 uM by Fluo-4NW calcium assay
Rattus norvegicus [6] = species: Rattus norvegicus; assay: Inhibition of thapsigargin activated calcium-release activated channel in rat RBL2H3 mast cells assessed as decrease in calcium influx at 10 to 100 uM by Fluo-4NW calcium assay
Rattus norvegicus [7] = species: Rattus norvegicus; assay: (§2) Inhibition of thapsigargin activated calcium-release activated channel in rat RBL2H3 mast cells assessed as decrease in nuclear translocation of NFAT-c1 measured 30 mins after extracellular calcium exposure by ELISA
[8] = as §2; conditions: RBL-2H3, 0.5 h
Rattus norvegicus [9] = species: Rattus norvegicus; assay: (§3) Inhibition of thapsigargin activated calcium-release activated channel in rat RBL2H3 mast cells assessed as decrease in release of beta-hexosaminidase preincubated for 30 mins followed by extracellular calcium addition by ELISA method
[10] = as §3; conditions: RBL-2H3

O=C(Nc1ccccc1F)c1nn(Cc2ccc(Cl)cc2Cl)c2ccccc12
pIC50 [1]: < 4.52
Activity (RBL-2H3): Non-Toxic
inhibition (Rattus norvegicus [2]): Dose-dependent effect
pIC50 [3]: 6.55
inhibition (Rattus norvegicus [4]): 44 to 48%

Cc1nnsc1C(=O)Nc1nn(Cc2ccc(Cl)cc2Cl)c2ccccc12
pIC50 [1]: < 4.52
Activity (RBL-2H3): Non-Toxic
inhibition (Rattus norvegicus [4]): 44 to 48%

Cc1cc(NC(=O)c2nn(Cc3ccc(Cl)cc3Cl)c3c2CCC3)ccn1
pIC50 [1]: < 4.52
Activity (RBL-2H3): Non-Toxic

O=C(Nc1nn(Cc2ccc(Cl)cc2Cl)c2ccccc12)c1ccnc(F)c1
Activity (RBL-2H3): Non-Toxic
inhibition (Rattus norvegicus [5]): < 50%

O=C(Nc1ccnc(F)c1)c1nn(Cc2ccc(Cl)cc2Cl)c2c1CCCCC2
IC50 [1]: Nd(Insoluble)
Activity (RBL-2H3): Non-Toxic

O=C(Nc1cc(F)nc(F)c1)c1nn(Cc2ccc(Cl)cc2Cl)c2c1CCC2
pIC50 [1]: 6.19
Activity (RBL-2H3): Non-Toxic

Cc1cc(NC(=O)c2nn(Cc3ccc(Cl)cc3Cl)c3c2CCCC3)ccn1
IC50 [1]: Nd(Insoluble)
Activity (RBL-2H3): Non-Toxic

O=C(Nc1ccnc(F)c1)c1nn(Cc2ccc(Cl)cc2Cl)c2ccccc12
inhibition (Rattus norvegicus [6]): Active
pIC50 [1]: 6.17
Activity (RBL-2H3): Non-Toxic
inhibition (Rattus norvegicus [2]): Dose-dependent effect
inhibition (Rattus norvegicus [7]): Dose-dependent effect
pIC50 [8]: 5.80
inhibition (Rattus norvegicus [9]): Dose-dependent effect
pEC50 [10]: 6.07

Cc1cc(NC(=O)c2nn(Cc3ccc(Cl)cc3Cl)c3ccccc23)ccn1
Activity (RBL-2H3): Non-Toxic
inhibition (Rattus norvegicus [5]): < 50%

O=C(Nc1cc(F)nc(F)c1)c1nn(Cc2ccc(Cl)cc2Cl)c2c1CCCC2
pIC50 [1]: 5.87
Activity (RBL-2H3): Non-Toxic

O=C(Nc1cnns1)c1nn(Cc2ccc(Cl)cc2Cl)c2ccccc12
Activity (RBL-2H3): Non-Toxic
inhibition (Rattus norvegicus [5]): < 50%

O=C(Nc1nn(Cc2ccc(Cl)cc2Cl)c2ccccc12)c1c(F)cccc1F
Activity (RBL-2H3): Non-Toxic
inhibition (Rattus norvegicus [5]): < 50%

O=C(Nc1c(F)cccc1F)c1nn(Cc2ccc(Cl)cc2Cl)c2ccccc12
inhibition (Rattus norvegicus [6]): Active
pIC50 [1]: 5.82
Activity (RBL-2H3): Non-Toxic
inhibition (Rattus norvegicus [2]): Dose-dependent effect
pIC50 [3]: 6.33

O=C(Nc1nn(Cc2ccc(Cl)cc2Cl)c2ccccc12)c1ccc(F)cc1F
Activity (RBL-2H3): Non-Toxic
inhibition (Rattus norvegicus [5]): < 50%

O=C(Nc1c(F)cccc1Cl)c1nn(Cc2ccc(Cl)cc2Cl)c2ccccc12
inhibition (Rattus norvegicus [6]): Active
pIC50 [1]: 5.49
Activity (RBL-2H3): Non-Toxic
inhibition (Rattus norvegicus [2]): Dose-dependent effect
pIC50 [3]: 6.13

O=C(Nc1nn(Cc2ccc(Cl)cc2Cl)c2ccccc12)c1cc(F)nc(F)c1
Activity (RBL-2H3): Non-Toxic
inhibition (Rattus norvegicus [5]): < 50%

O=C(Nc1cc(F)nc(F)c1)c1nn(Cc2ccc(Cl)cc2Cl)c2ccccc12
pIC50 [1]: < 4.52
Activity (RBL-2H3): Non-Toxic
inhibition (Rattus norvegicus [4]): 46%

Cc1cc(NC(=O)c2nn(Cc3ccc(Cl)cc3Cl)c3c2CCCCC3)ccn1
pIC50 [1]: < 4.52
Activity (RBL-2H3): Non-Toxic

O=C(Nc1nn(Cc2ccc(Cl)cc2Cl)c2ccccc12)c1ccccc1F
inhibition (Rattus norvegicus [6]): Active
pIC50 [1]: 4.54
Activity (RBL-2H3): Non-Toxic

O=C(Nc1ccnc(F)c1)c1nn(Cc2ccc(Cl)cc2Cl)c2c1CCCC2
pIC50 [1]: 5.82
Activity (RBL-2H3): Non-Toxic

O=C(Nc1cc(F)nc(F)c1)c1nn(Cc2ccc(Cl)cc2Cl)c2c1CCCCC2
pIC50 [1]: 4.89
Activity (RBL-2H3): Non-Toxic

Cc1cc(C(=O)Nc2nn(Cc3ccc(Cl)cc3Cl)c3ccccc23)ccn1
pIC50 [1]: < 4.52
Activity (RBL-2H3): Non-Toxic
inhibition (Rattus norvegicus [4]): 44 to 48%

O=C(Nc1ccnc(F)c1)c1nn(Cc2ccc(Cl)cc2Cl)c2c1CCC2
pIC50 [1]: 6.00
Activity (RBL-2H3): Non-Toxic

O=C(Nc1ccc(F)cc1F)c1nn(Cc2ccc(Cl)cc2Cl)c2ccccc12
inhibition (Rattus norvegicus [6]): Active
pIC50 [1]: 5.63
Activity (RBL-2H3): Non-Toxic

— ChEMBL document CHEMBL4002603, “Structure-activity relationship study and discovery of indazole 3-carboxamides as calcium-release activated calcium channel blockers” (Bioorg Med Chem Lett, 2017)
